Assay results as given in US9163025B2, “Stable complexes of an alkaline earth metal salt of N5-methyl-tetrahydrofolic acid and a polyol” (CERBIOS-PHARMA SA, priority 2013, dated 2015).

Experiment: Accelerated stability of calcium (6S) N5-methyl-tetrahydrofolate products (HPLC related substances and assay)
Assay type: physicochemical
Details: 25° C. and 40% relative humidity
Method: Determination of related substances of calcium (6S)—N^5-methyl-(5,6,7,8)-tetrahydrofolate by HPLC method
25±3 mg of (6S)-5-methyl-tetrahydrofolic acid calcium salt calculated on dry base were placed in a 50 ml volumetric flask and added with 320 μl of acid ascorbic solution and water until the final volume was reached. The solution was transferred in a HPLC vial and the sample injected immediately.
Analysis: 10 μl of the sample solution were Injected, the chromatogram recorded (analytical wavelength 280±16 nm) and the peak response measured.
the liquid chromatograph was equipped with a Hypersil ODS column (length 250 mm, ID 4 mm, particle size 5 μm). The column was coupled with a diode array detector for the detection wavelength of 280±16 nm
Determination of assay by HPLC of calcium (6RS) and (6S) N^5-methyl-tetrahydrofolate
75-85 mg of sample were dissolved in 200 ml water within a 250 ml volumetric flask. 1 ml of the ascorbic acid solution was added and dilute to 250 ml with water. A total of three sample solutions were prepared.
The HPLC system was verified and calibrated by injecting the standard solutions. Once each of the three prepared sample solutions were injected followed by one standard solution as calibration control.
The liquid chromatograph was equipped with an analytical column such ACE 5 C18, 250 mm×2.1 mm, with particle size 5 μm.
acetonitrile 12%, phosphate buffer pH 6.5 80%, methanol+2-mercaptoethanol 8%.
column temperature: 25° C., isocratic mode, flow rate: 0.41 ml/min, injection volume: 5 μl, run time: 13.5 min, analytical wavelength: 290 nm.
The stability of the complexes according to the present invention prepared by spray-drying or lyophilization as described in examples 5 and 7 was tested in comparison with the stability of (6S)—N^5-methyl-tetrahydrofolate calcium salt alone. Preparations obtained through different technologies, such as evaporation of the solvent from the solution, as reported in examples 2, 3 and 4, were also assessed for stability. Accelarated stability experiments at 25° C. and 40% relative humidity were carried out.

Decrease of 5MeTHF % content (4 weeks): −2.70%
Increase of D2 % content (4 weeks): 1.30%
Decrease of 5MeTHF % content (12 weeks): −2.80%
Increase of D2 % content (12 weeks): 1.40%
Decrease of 5MeTHF % content (24 weeks): −5.6%
Increase of D2 % content (24 weeks): 2.3%
Compound: CN1c2c(nc(N)[nH]c2=O)NC[C@@H]1CNc1ccc(C(=O)N[C@@H](CCC(=O)[O-])C(=O)[O-])cc1.[Ca+2] [Product 5MeTHF, (6S)—N^5-methyl-(5,6,7,8)-tetrahydrofolate calcium salt]
